Where “and” joins values, the source holds several entries; their conditions need not be identical. Identical values can stand only once.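 The compound was tested at five concentrations on cells cultured in 96-well plates, with a 48-hour exposure period. GI50 is the concentration that inhibits growth by half. TGI: concentration producing complete growth inhibition.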
Tests used:
Assay in all cases: NCI anticancer screen, dose series, 48 h
A549 NSCLC = tested on: A549 NSCLC
BT-549 breast = tested on: BT-549 breast
KM12 colon = tested on: KM12 colon
M14 melanoma = tested on: M14 melanoma
NCI-H522 lung = tested on: NCI-H522 lung
OVCAR-3 ovarian = tested on: OVCAR-3 ovarian
OVCAR-5 ovarian = tested on: OVCAR-5 ovarian
SK-MEL-2 melanoma = tested on: SK-MEL-2 melanoma
SNB-75 CNS = tested on: SNB-75 CNS
TK-10 renal = tested on: TK-10 renal

SMILES | TGI (A549 NSCLC) | TGI (BT-549 breast) | TGI (KM12 colon) | TGI (M14 melanoma) | TGI (NCI-H522 lung) | TGI (OVCAR-3 ovarian) | TGI (OVCAR-5 ovarian) | TGI (SK-MEL-2 melanoma) | TGI (SNB-75 CNS) | TGI (TK-10 renal) | GI50 (A549 NSCLC) | GI50 (BT-549 breast) | GI50 (KM12 colon) | GI50 (M14 melanoma) | GI50 (NCI-H522 lung) | GI50 (OVCAR-3 ovarian) | GI50 (OVCAR-5 ovarian) | GI50 (SK-MEL-2 melanoma) | GI50 (SNB-75 CNS) | GI50 (TK-10 renal)
c1ccc(CN2CCc3[nH]c4ccccc4c3C2)cc1 | > 79.8 µM | > 100 µM | 45.9 µM | 33.1 µM | 42.4 µM | > 74.7 µM | > 96.3 µM | 41.1 µM | > 100 µM | > 71 µM | – | – | – | – | – | – | – | – | – | –
Cc1ccc(C(=O)NCCCOc2ccc(N3C(N)=NC(N)=NC3(C)C)cc2Cl)cc1S(=O)(=O)F | > 100 µM | > 100 µM | > 100 µM | > 100 µM | > 100 µM | > 100 µM | > 100 µM | > 100 µM | > 100 µM | > 100 µM | 39.5 µM | 43.1 µM | 39 µM | 44.7 µM | 61.7 µM | > 100 µM | > 100 µM | > 100 µM | 13.4 µM | > 100 µM
O=C(NCCc1ccccc1)Nc1ccc2cc3ccc(NC(=O)NCCc4ccccc4)cc3nc2c1 | 14.7 µM | 3.37 µM | 4.42 µM | – | 1.5 µM | 2.34 µM | 5.7 µM | 3 µM | 3.21 µM | 24.8 µM | 3.16 µM | 1.64 µM | 1.64 µM | – | 0.326 µM | 1.04 µM | 2.03 µM | 1.39 µM | 1.36 µM | 4.98 µM
Nc1ccccc1C#C/C=C\C#CC#C/C=C\C#Cc1ccccc1N | 16.4 µM | 25.9 µM | > 100 µM | – | 16 µM | 14 µM | 42.1 µM | 65.3 µM | 22 µM | > 100 µM | 2.77 µM | 5.03 µM | 3.64 µM | – | 3.93 µM | 2.78 µM | 14.9 µM | 14.2 µM | 3.27 µM | 15.3 µM
CCOC(=O)C(Cc1c[nH]c2cc(N(CCO)CCO)ccc12)(NC(C)=O)C(=O)OCC | > 1000 µM | > 1000 µM | 463 µM | > 1000 µM | > 1000 µM | 726 µM | > 1000 µM | – | > 1000 µM | > 1000 µM | 604 µM | 69.3 µM and 459 µM | 143 µM | 517 µM | 61.9 µM | 186 µM | > 1000 µM | – | – | > 1000 µM
N#Cc1ccc(-c2c(-c3ncn[nH]3)sc(N3CCOCC3)c2C#N)c(F)c1 | 12.7 µM | 39.2 µM | 15.6 µM | – | 15 µM | 7.89 µM | 10.5 µM | 10.7 µM | 0.771 µM | 7.11 µM | 0.666 µM | 3.84 µM | 2.25 µM | – | 1.17 µM | 0.502 µM | 0.455 µM | 1.92 µM | 0.0736 µM | 0.316 µM
NCCCOc1cc2ccccc2cc1C(=O)Nc1ccc(Cl)cc1OC(=O)c1cc2ccccc2cc1OCCCN | – | 3.1 µM | 0.394 µM | 1.26 µM | 0.639 µM | 1.43 µM | 2.47 µM | 1.2 µM | 0.859 µM | 1.07 µM | – | 1.66 µM | 0.19 µM | 0.321 µM | 0.235 µM | 0.612 µM | 1 µM | 0.312 µM | 0.119 µM | 0.545 µM
O=C(Nc1cccc(-n2cc(-c3ccncc3)c(-c3ccc(O)c(Cl)c3)n2)c1)c1ccc2c(c1)OCCO2 | > 100 µM | > 100 µM | > 100 µM | > 100 µM | > 100 µM | – | > 100 µM | > 100 µM | > 100 µM | > 100 µM | 5.85 µM | 4.92 µM | 4.83 µM | 5.83 µM | 6.25 µM | – | > 100 µM | > 100 µM | 4 µM | > 100 µM
Nc1nonc1-c1nc2ccccc2n1Cc1ccc(F)cc1 | > 100 µM | > 100 µM | > 100 µM | > 100 µM | > 100 µM | > 100 µM | > 100 µM | – | 9.52 µM | > 100 µM | 5.69 µM | 9.8 µM | 3.71 µM | 4.64 µM | 4.42 µM | 5.8 µM | > 100 µM | – | 1.41 µM | 6.78 µM
Nc1c(C(=O)Nc2ccccn2)sc2nc3c(cc12)C(O)CCC3 (centres undefined) | > 50 µM | > 50 µM | > 50 µM | > 50 µM | 2.02 µM | 4.11 µM | > 50 µM | > 50 µM | > 50 µM | – | 2.6 µM | 3.47 µM | 1.95 µM | 0.949 µM | 0.815 µM | 1.35 µM | 2.54 µM | 1.34 µM | 1.66 µM | –
O=S(=O)(NCCNc1nccc(-c2c(-c3ccc(F)c(O)c3)nc3sccn23)n1)c1ccc(Cl)cc1 | > 50 µM | 14 µM | – | – | 18.6 µM | 14.9 µM | > 50 µM | 7.99 µM | 9.31 µM | 34.6 µM | 1.69 µM | 1.65 µM | – | – | 2.08 µM | 2.56 µM | 7.31 µM | 1.64 µM | 1.13 µM | 5.16 µM

— PubChem BioAssay (NCI)
